From PubChem BioAssay (NCI) come the findings set out here.

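Exposure lasted 48 hours, with cells grown in 96-well plates and compounds tested at five concentrations. Definition used: TGI = concentration required for complete inhibition of growth.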

Common to all, as to assay: DTP human tumour cell line panel, 48 h
Test [1] concerns NCI-H460 lung.
Test [2] has as its system A549 NSCLC.
Test [3] concerns IGROV1 ovarian.
Test [4] has as its system UACC-62 melanoma.
In test [5] the test system is U251 CNS.
Test [6] concerns SF-539 CNS.
Test [7] deals with MCF7 breast.
The test system of test [8] is SK-MEL-28 melanoma.
Test [9] has as its system MDA-MB-435.
Test [10] deals with HCC-2998 colon.

As to `Nc1c2c(nc3cc(F)c(F)cc13)CCC2`, the concentration for total growth inhibition (TGI) in test [1] is 54 µM; in test [2], more than 100 µM; in test [3], more than 100 µM; in test [4], more than 100 µM; in test [5], more than 100 µM; in test [6] it was more than 100 µM. In addition, the TGI is more than 100 µM in test [7], more than 100 µM in [8], more than 100 µM in [9] and 35.1 µM in test [10].
With `O=C(O)CC1NC(/C(=C/c2ccccc2)NC(=O)c2ccccc2)OC1=O` (stereo not given), the TGI in test [1] is 69.6 µM; in test [2], more than 100 µM; in [3], more than 100 µM; in test [4], 57.9 µM; in test [5], 34.5 µM; in [6] it was 44.2 µM. The TGI was more than 100 µM in [7], 52.4 µM in test [8], 67 µM in [9] and more than 100 µM in test [10].
Turning to `C/C(=N\NC(=S)N1CCCCC1)c1nc2ncccc2[nH]1`, the TGI in test [1] was 49.8 µM; in test [2] it was 96.4 µM; in test [3], more than 100 µM; in [4] it was 69.7 µM; in test [5], more than 100 µM; in test [6], 21.3 µM. The TGI in test [7] is 14 µM; in [8], 37.7 µM; in test [9], 35 µM; in test [10] it was more than 100 µM.
For the molecule `O=C(NC(Cc1c[nH]c2ccccc12)C(=O)Nc1ccc(Br)cc1)OCc1ccccc1` (stereo not given), the TGI is 20.1 µM in test [1]; more than 100 µM in test [2]; 27.6 µM in test [3]; 22 µM in test [4]; 25.1 µM in [5]; 29.2 µM in test [6]. The TGI in test [7] worked out at 29.3 µM; in [8] it was 30.5 µM; in [9], 22.1 µM; in [10] it was 23.1 µM.
`CCCCCCCCCC1(N=[N+]=[N-])C(=O)c2ccccc2N(C)C1=O` (stereo not given): the TGI in test [1] is more than 100 µM; in test [2], 95.1 µM; in test [3] it was 60.7 µM; in test [4], 80.5 µM; in test [5], 6.31 µM; in [6] it was more than 100 µM. The TGI in test [7] was more than 100 µM; in test [8], 78.8 µM; in test [9], 6.88 µM; in [10], 96.2 µM.
In the case of `OCCCCCCCCCCCOc1ccc(C2OCC3(CO2)COC(c2ccc(OCCCCCCCCCCCO)cc2)OC3)cc1` (stereo not given), the TGI in test [1], in test [2], in [3], in [4], in test [5] and in [6] was more than 50 µM throughout. The TGI in test [7], in test [8], in test [9] and in test [10] was more than 50 µM throughout.
With `NC1CC(=O)c2c(Br)csc21` (stereo not given), the TGI in test [1] was more than 100 µM; in [2] it was more than 100 µM; in test [3] it was more than 100 µM; in test [4] it was 58.7 µM; in [5], 53.1 µM; in test [6], more than 100 µM. Also, the TGI in test [7] is more than 100 µM; in [8], 79.9 µM; in [9], 66.3 µM; in test [10], 44.8 µM.
Turning to `Cc1cc(C)nc(NC(=O)c2ccc(Br)s2)c1`, the TGI in test [1], in [2], in test [3], in test [4], in [5] and in test [6] was more than 100 µM in each case. For the same molecule, the TGI in [7], in test [8], in test [9] and in test [10] was more than 100 µM throughout.
Consider `CNC(C#N)c1ccc(OC)cc1` (stereo not given), for which the TGI in test [1], in test [2], in test [3], in test [4], in test [5] and in test [6] was more than 100 µM in each case. The TGI in test [7], in test [8], in [9] and in test [10] was more than 100 µM throughout.
For the molecule `CC1=CC(C)C/C=C/C2C3OC3(C)C(C)C3C(Cc4c[nH]c5ccccc45)NC(=O)C23C(=O)C=CC(=O)C1O` (stereo not given), the TGI in test [1] came to 27.6 µM; in test [2], 26.6 µM; in test [3], 24.6 µM; in [4], 29.1 µM; in [5] it was 43.2 µM; in test [6], 29.8 µM. Besides, the TGI in test [7] was 27.1 µM; in test [8], 38.2 µM; in [9], 46.6 µM; in test [10], 21.7 µM.

For orientation: TGI means the concentration at which net growth stops. A lower TGI goes with more potent growth arrest.
